Data published in US20050197350A1, “Novel quinoline, tetrahydroquinazoline, and pyrimidine derivatives and methods of treatment related to the use thereof” (TAISHO PHARMACEUTICAL CO., LTD., priority 2003, published 2005).
Read-outs that look alike come from different tables or passages of the source.

System: MCH receptors
Assay: MCH receptor activity class (method not given)
[1] = class by percent of control at 10^-7 M or IC50
[2] = activity class 1-3: percent of control at 10^-7 M or IC50
[3] = class 1-3 by percent of control at 10^-7 M or IC50
[4] = class by percent of control at 10^−7 M or IC50
[5] = MCH receptor, class by percent of control at 10^-7 M or IC50

Row | SMILES | class [1] | other results
1 | CN(C)c1ccnc(N[C@H]2CC[C@@H](NC(=O)c3ccc([N+](=O)[O-])cc3Cl)CC2)n1 [compound 320] | 3 (Class 3 The value of percent of control at 10^−7 M was more than 60% or the value of IC50 was more than 200 nM.) | 
2 | Cc1cc(C(=O)NC[C@H]2CC[C@@H](Nc3nccc(N(C)C)n3)CC2)ccc1Br [compound 402] | 3 (Class 3 The value of percent of control at 10^−7 M was more than 60% or the value of IC50 was more than 200 nM.) | 
3 | CCc1cccc(C)c1NC(=S)N[C@H]1CC[C@@H](Nc2nc3c(c(N(C)C)n2)CCCC3)CC1 [compound 1760] | 3 (Class 3 The value of percent of control at 10^−7 M was more than 60% or the value of IC50 was more than 200 nM.) | 
4 | CCOC(=O)[C@H](CC(C)C)NC(=O)N[C@H]1CC[C@@H](Nc2nc3c(c(N(C)C)n2)CCCC3)CC1 (relative stereo) [compound 1663] |  | class [2]: 3 (Class 3 The value of percent of control at 10^−7 M was more than 60% or the value of IC50 was more than 200 nM.)
5 | C/C(=C\c1ccccc1)C(=O)NC[C@H]1CC[C@@H](Nc2nccc(N(C)C)n2)CC1 [compound 432] |  | class [3]: 3 (Class 3 The value of percent of control at 10^−7 M was more than 60% or the value of IC50 was more than 200 nM.)
6 | CN(C)c1nc(N[C@H]2CC[C@@H](NC(=S)Nc3ccc(Br)cc3OC(F)(F)F)CC2)nc2c1CCCC2 [compound 1787] | 2 (Class 2: The value of percent of control at 10^−7 M was from 40% to 60% or the value of IC′50 was from 50 nM to 200 nM.) | 
7 | Cc1cc(NC(=O)NC[C@H]2CC[C@@H](Nc3nc4c(c(N(C)C)n3)CCCC4)CC2)c(C(F)(F)F)o1 [compound 2484] | 3 (Class 3 The value of percent of control at 10^−7 M was more than 60% or the value of IC50 was more than 200 nM.) | 
8 | CC(NC(=O)N[C@H]1CC[C@@H](Nc2nccc(N(C)C)n2)CC1)c1cccc2ccccc12 (relative stereo) [compound 2224, N-(cis-4-{[4-(dimethylamino)pyrimidin-2-yl]amino}cyclohexyl)-N′-[1-(1-naphthyl)ethyl]urea] | 1 (Class 1: The value of percent of control at 10^−7 M was less than 40% or the value of IC50 was less than 50 nM.) | 
9 | CN(C)c1ccnc(N[C@H]2CC[C@@H](NC(=O)c3cc(C(F)(F)F)cc(C(F)(F)F)c3)CC2)n1 [compound 296, N-(cis-4-{[4-(dimethylamino)pyrimidin-2-yl]amino}cyclohexyl)-3,5-bis(trifluoromethyl)benzamide] | 1 (Class 1: The value of percent of control at 10^−7 M was less than 40% or the value of IC50 was less than 50 nM.) | 
10 | Cc1cc(C(=O)N[C@H]2CC[C@@H](Nc3nc(C)c(C)c(N(C)C)n3)CC2)no1 [compound 2828, N-(cis-4-{[4-(dimethylamino)-5,6-dimethylpyrimidin-2-yl]amino}cyclohexyl)-5-methylisoxazole-3-carboxamide] |  | class [4]: 2 (Class 2: The value of percent of control at 10^−7 M was from 40% to 60% or the value of IC′50 was from 50 nM to 200 nM.)
11 | COc1cccc(CN[C@H]2CC[C@@H](Nc3cc(N(C)C)c4ccccc4n3)CC2)c1 [compound 1104] |  | class (activity class per percent of control at 10^-7 M or IC50): 3 (Class 3 The value of percent of control at 10^−7 M was more than 60% or the value of IC50 was more than 200 nM.)
12 | COc1cc(CC(=O)N[C@H]2CC[C@@H](Nc3nccc(N(C)C)n3)CC2)cc(OC)c1 [compound 841] | 3 (Class 3 The value of percent of control at 10^−7 M was more than 60% or the value of IC50 was more than 200 nM.) | 
13 | Cc1ccc(NC(=S)N[C@H]2CC[C@@H](Nc3nccc(N(C)C)n3)CC2)c(C)c1 [compound 2321] |  | class (MCH receptor activity class 1-3 (percent of control at 10^-7 M or IC50)): 3 (Class 3 The value of percent of control at 10^−7 M was more than 60% or the value of IC50 was more than 200 nM.)
14 | COC(CN[C@H]1CC[C@@H](Nc2cc(N(C)C)c3ccccc3n2)CC1)c1ccccc1 (relative stereo) [compound 1450] | 3 (Class 3 The value of percent of control at 10^−7 M was more than 60% or the value of IC50 was more than 200 nM.) | 
15 | CN(C)c1nc(N[C@H]2CC[C@@H](CNC(=O)c3ccc(Cl)c([N+](=O)[O-])c3)CC2)nc2c1CCCC2 [compound 589] |  | class [3]: 3 (Class 3 The value of percent of control at 10^−7 M was more than 60% or the value of IC50 was more than 200 nM.)
16 | CN(C)c1ccnc(N[C@H]2CC[C@@H](CNCCCCCCCCc3ccccc3)CC2)n1 [compound 1528] |  | class [2]: 3 (Class 3 The value of percent of control at 10^−7 M was more than 60% or the value of IC50 was more than 200 nM.)
17 | Cc1cnc(NC[C@H]2CC[C@@H](NC(=O)c3ccc(Cl)c(Cl)c3)CC2)nc1N(C)C [compound 2729, 3,4-dichloro-N-[cis-4-({[4-(dimethylamino)-5-methylpyrimidin-2-yl]amino}methyl)cyclohexyl]benzamide] |  | class [4]: 3 (Class 3 The value of percent of control at 10^−7 M was more than 60% or the value of IC50 was more than 200 nM.)
18 | CN(C)c1nc(N[C@H]2CC[C@@H](NCC(c3ccc(Cl)cc3)c3ccc(Cl)cc3)CC2)nc2c1CCCC2 [compound 1495] | 3 (Class 3 The value of percent of control at 10^−7 M was more than 60% or the value of IC50 was more than 200 nM.) | 
19 | COc1ccc(Oc2ccc([N+](=O)[O-])cc2C(=O)N[C@H]2CC[C@@H](Nc3cc(N(C)C)c4ccccc4n3)CC2)cc1 [compound 108, N-(cis-4-{[4-(dimethylamino)quinolin-2-yl]amino}cyclohexyl)-2-(4-methoxyphenoxy)-5-nitrobenzamide] |  | class [5]: 1 (Class 1: The value of percent of control at 10^−7 M was less than 40% or the value of IC50 was less than 50 nM.)
20 | Cc1cc(C)c(CCNC[C@H]2CC[C@@H](Nc3nc4c(c(N(C)C)n3)CCCC4)CC2)c(C)c1 [compound 1501] | 3 (Class 3 The value of percent of control at 10^−7 M was more than 60% or the value of IC50 was more than 200 nM.) | 
21 | CN(C)c1nc(N[C@H]2CC[C@@H](NC(=S)Nc3ccc(Br)cc3C(F)(F)F)CC2)nc2c1CCCC2 [compound 1765] | 1 (Class 1: The value of percent of control at 10^−7 M was less than 40% or the value of IC50 was less than 50 nM.) | 
22 | CN(C)c1nc(N[C@H]2CC[C@@H](CNC(=O)/C=C/c3ccc([N+](=O)[O-])cc3)CC2)nc2c1CCCC2 [compound 641] | 2 (Class 2: The value of percent of control at 10^−7 M was from 40% to 60% or the value of IC′50 was from 50 nM to 200 nM.) | 
23 | Cc1cc(N[C@H]2CC[C@@H](NC(=O)Nc3ccccc3Oc3ccccc3)CC2)nc2ccccc12 [Example 2561, N-{cis-4-[(4-methylquinolin-2-yl)amino]cyclohexyl}-N′-(2-phenoxyphenyl)urea] |  | class: 1
24 | CN(C)c1nc(N[C@H]2CC[C@@H](NC(=O)c3ccc(F)cc3F)CC2)nc2c1CCCC2 [compound 562] |  | class [3]: 3 (Class 3 The value of percent of control at 10^−7 M was more than 60% or the value of IC50 was more than 200 nM.)
25 | CCOc1ccccc1C(=O)N[C@H]1CC[C@@H](Nc2cc(N(C)C)c3ccccc3n2)CC1 [compound 72] |  | class [5]: 3 (Class 3 The value of percent of control at 10^−7 M was more than 60% or the value of IC50 was more than 200 nM.)
26 | CN(C)c1cc(N[C@H]2CC[C@@H](NC(=O)c3ccc(Cl)c([N+](=O)[O-])c3)CC2)nc2ccccc12 [compound 27, 4-chloro-N-(cis-4-{[4-(dimethylamino)quinolin-2-yl]amino}cyclohexyl)-3-nitrobenzamide] |  | class [5]: 1 (Class 1: The value of percent of control at 10^−7 M was less than 40% or the value of IC50 was less than 50 nM.)
